For series [1], the system named is Caco-2 cells. Briefly: Stability and metabolism on incubation with Caco-2 cells. The class given is in vitro ADME, human. Conditions: 100 μg/mL, incubated with Caco-2 cells, pH 7.4 HBSS, 10 mM ascorbic acid, 37°C, 6 hours.
In series [2] the test system is Caco-2 cells. The experiment in a line: Cellular uptake of FITC-conjugated drugs and their niosomes by Caco-2 cells. The conditions noted are these: 100 μg/mL, 37°C, 6 hours incubation, n=3. Format: in vitro ADME, human.
A short description of series [3]: Stability in pH 7.4 HBSS buffer with ascorbic acid. The conditions noted are these: 100 μg/mL, 10 mM ascorbic acid, 37°C, 6 hours. Format: physicochemical.
For series [4], the system named is Caco-2 cells. Briefly: SRB cytotoxicity assay. Format: cell-based. The conditions noted are these: Homo sapiens, Caco-2, 24 h, read-out: IC50 (SRB assay). On the technique in general: The SRB assay estimates cell density from bound dye.
The conditions of series [5]: stated in the introduction, method and reference not given; cited from earlier work.

Converted amounts (≈) assume the structure as drawn.

Broadly, the IC50 is the point on the concentration scale where inhibition reaches its midpoint. In the series with Caco-2 cells [1], `O=C(O[C@@H]1Cc2c(O)cc(O)cc2O[C@@H]1c1cc(O)c(O)c(O)c1)c1cc(O)c(O)c(O)c1` [EGCG, (−)-epigallocatechin gallate] yielded a Decrease of drug of 13.0%. Moreover, the “Uptake ± SD” value in the series with Caco-2 cells [2] was found to be 0.90±0.14 μg/mg protein. Also, the “Drug present and unchanged” value in series [3] is reported as 86.2%. For the same compound, the 50% inhibitory concentration (IC50) with Caco-2 cells [4] was determined as 125 ± 3.3 µg/mL (≈ 272 µM). Also, the “Octanol/buffer partition coefficient P” value in series [5] is 0.86±0.03.

These data come from publication PMC4020900 (International Journal of Nanomedicine, 2014).
